Reference: patent US20230245725A1, “Means and Methods for the Prediction of Amyloid Core Sequences” (VIB VZW, priority 2020, published 2023)
Like-named read-outs stand apart in the source and are kept apart here.

What was measured:
Type in all cases: physicochemical
[1] = Thioflavin-T binding assay of synthetic peptides; details: 200 μM peptide, rotation 5 days, room temperature; Th-T 25 μM
Text: (§1) In the interest of improving the current description of the familiar amyloidogenic protein dataset, we selected and synthesised a subset of 96 peptides corresponding to strong aggregation prone regions identified in these proteins by Cordax. Apart of prediction strength, the peptide screen was also selectively constructed to ensure broad sequence variability and a wide distribution on the proteins of the dataset, with a preference for longer entries defined by inadequate previous characterisation. Peptide sequences were cross-checked and filtered to exclude overlapping sequences with previously identified amyloid regions and WALTZ-DB (see Table 2). The remaining selection of 96 peptides were synthesized using standard solid phase synthesis and their amyloid-forming properties were initially examined using Thioflavin-T (Th-T) or pFTAA binding, following rotating incubation for 5 days at room temperature. The binding assays are complementary, as Th-T and pFTAA are opposingly charged molecules, which increases the amyloid identification rate by overcoming cases of dye-specific failure to bind to amyloid surfaces based on charge repulsion. Under these conditions, 66 peptides successfully bind the specific dyes (FIGS. 3a & 3b) by forming fibrils with typical amyloid morphologies and properties that were verified using transmission electron microscopy (FIG. 3c) and Congo red staining for selected cases (FIG. 3d). As these dyes are known to yield false negatives, in particular for short peptides, all dye-negative peptides were further investigated using electron microscopy. During this scan, we recovered 19 additional sequences that were capable of forming sparse amyloid-like fibrils with shorter lengths (see FIG. 8).
(§2) Peptides derived from the Cordax validation set were synthesized using an Intavis Multipep RSi solid phase peptide synthesis robot. Peptide purity (>90%) was evaluated using RP-HPLC purification protocols and peptides were stored as ether precipitates (−20° C.). Peptide stocks were initially treated with 1,1,1,3,3,3-hexafluoro-isopropanol (HFIP) (Merck), then dissolved in traces of dimethyl sulfoxide (DMSO) (Merck) (<5%), filtered through 0.2 μm filters and finally in milli-Q water to reach a final concentration of 200 μM or up to 1 mM for dye-negative peptides. Dithiothreitol (DTT) (1 mM) was included in solutions of peptides spanning cysteine or methionine residues. All peptides were incubated at room temperature for a period of 5 days on a rotating wheel.
(§3) Amyloid aggregation was monitored using fluorescent spectroscopy binding assays. Th-T (Sigma) or pFTAA (Ebba Biotech AB) was added in half-area black 96-well microplates (Corning, USA) at a final concentration of 25 μM and 0.5 μM, respectively. Fluorescence intensity was measured in replicates (n=6) using a PolarStar Optima and a FluoStar Omega plate reader (BMG Labtech, Germany), equipped with an excitation filter at 440 nm and emission filters at 480 nm and 510 nm, respectively.

[2] = pFTAA binding assay of synthetic peptides; details: 200 μM peptide, rotation 5 days, room temperature; pFTAA 0.5 μM
Text: as §1, §2, §3

[3] = Amyloid-forming properties of the peptide screen (overall call from Th-T, pFTAA, TEM)
Text: as §1, with “8). […]” for “8).”
as §2, §3
(§4) Peptide solutions were incubated for 5 days at room temperature in order to form mature amyloid-like fibrils. Suspensions (5 μL) of each peptide solution were added on 400-mesh carbon-coated copper grids (Agar Scientific Ltd., England), following a glow-discharging step of 30 s to improve sample adsorption. Grids were washed with milli-Q water and negatively stained using uranyl acetate (2% w/v in milli-Q water). Grids were examined with a JEM-1400 120 kV transmission electron microscope (JEOL, Japan), operated at […].

[4] = Transmission electron microscopy of peptide fibrils
Text: as §1, §4

[5] = amyloid-like fibrils after 5 days at room temperature

Substance	Th-T Binding [1]	pFTAA Binding [2]	Amyloid ([3]; overall amyloid-forming call)	TEM [4, 5]	TEM [4]	Amyloid [3]
AFFLFC	●	●	●	–	–	–
AYVILK	–	●	●	–	–	–
CEFLRK	–	●	●	–	–	–
DCFEYV	●	●	●	–	–	–
DLVVFE	●	●	●	–	–	–
EDCFIL	●	●	●	–	–	–
EVYKWT	–	●	●	–	–	–
FEYVQL	●	●	●	–	–	–
FKVAIV	–	●	●	–	–	–
FLGYFK	–	–	●	●	–	–
FSFTIA	●	●	●	–	–	–
FYAVRL	–	–	●	●	–	–
GDVAFI	●	●	●	–	–	–
GVIHYI	–	–	●	●	–	–
GWFLGW	●	–	●	–	–	–
GWNIPM	–	●	●	–	–	–
GYLTIR	–	–	●	●	–	–
GYTLFS	–	–	●	●	–	–
HYYAVA	–	●	●	–	–	–
IGINIK	–	–	●	●	–	–
IGVVGW	●	●	●	–	–	–
IGYNIK	–	–	●	●	–	–

Substance	Th-T Binding [1]	pFTAA Binding [2]	Amyloid ([3]; overall amyloid-forming call)	TEM [4, 5]	TEM [4]	Amyloid [3]
INAWLF	●	●	●	–	–	–
INFEFS	●	●	●	–	–	–
IQIHHY	–	–	●	●	–	–
LCSTFC	●	●	●	–	–	–
LHCLRR	–	●	●	–	–	–
LIFMGH	●	●	●	–	–	–
LIVSIL	●	●	●	–	–	–
LLDNWD	–	●	●	–	–	–
LLFKDS	–	–	●	●	–	–
LLVYNK	–	–	●	●	–	–
LNLKLL	–	●	●	–	–	–
LNSVFK	–	–	●	●	–	–
LQVDLG	●	●	●	–	–	–
LSIWES	●	●	●	–	–	–
LVMELD	●	●	●	–	–	–
LYHGQT	–	–	●	●	–	–
LYHLVT	–	–	●	●	–	–
MDKVER	–	–	●	●	–	–
MDVFMK	●	●	●	–	–	–
MELIVS	●	●	●	–	–	–
MFSEFD	●	●	●	–	–	–
MIIYKG	–	●	●	–	–	–

Substance	Th-T Binding [1]	pFTAA Binding [2]	Amyloid ([3]; overall amyloid-forming call)	TEM [4, 5]	TEM [4]	Amyloid [3]
MLHKEF	●	–	●	–	–	–
MSVSLV	●	●	●	–	–	–
MVVEHP	–	●	●	–	–	–
MYVSEM	●	●	●	–	–	–
NLYEKT	–	●	●	–	–	–
QIIEIE	●	●	●	–	–	–
QVYYRP	–	–	–	–	●	●
SEFSKK	–	●	●	–	–	–
SNFLRA	–	–	●	●	–	–
SVDYEV	–	●	●	–	–	–
SYVLQT	●	●	●	–	–	–
TDVVFM	●	●	●	–	–	–
TIFLDF	–	●	●	–	–	–
TKVIPY	–	●	●	–	–	–
VDMAMC	●	●	●	–	–	–
VNIELL	●	●	●	–	–	–
VVVNKM	–	●	●	–	–	–
VYTVFA	●	●	●	–	–	–
YFTAIQ	●	●	●	–	–	–
YVAGIT	●	●	●	–	–	–
